Our source for the IC50 values is patent publication US11780841B2, “3,6-methano-1H-pyrrolo[3,2-b]pyridine and 3,6-methano-1H-pyrrolo[3,2-c]pyridine compounds and medicaments using same” (priority 2018, dated 2023).

The experiment deals with recombinant rabies virus 1088 strain expressing Gaussia Luciferase (GLuc) (1088/GLuc). Type of experiment: cell-based. As to conditions: read-out: Anti-rabies activity.

Bounds are passed on as bounds.

On to `CCCCCCNC(=O)[C@@]12C[C@@H]3CN(CC(N)=O)[C@@H]([C@@H]3CN1)[C@H]2CCc1ccccc1` [IF-109], for which the IC50 was 10 to 30 µM.
Then `CCCCCCNC(=O)[C@@]12C[C@@H]3CN(CC(N)=O)[C@@H]([C@@H]3CN1)[C@H]2Cc1cccc2ccccc12` [IF-110], with under 5 µM; and `NC(=O)CN1C[C@H]2C[C@]3(C(=O)NCc4ccc(O)cc4)NC[C@H]2[C@H]1[C@H]3Cc1cccc2ccccc12` [IF-137], with under 5 µM.
For `CC(C)CCN1C[C@H]2C[C@]3(C(=O)NC(C)C)NC[C@H]2[C@H]1[C@H]3CCCNC(=N)N` [IF-214] the value was 10 to 30 µM; for `NC(=O)CCNC(=O)[C@@]12C[C@@H]3CN(CCc4ccccc4)[C@@H]([C@@H]3CN1)[C@H]2CC(N)=O` [IF-219], 10 to 30 µM; for `NC(=O)C[C@@H]1[C@@H]2[C@@H]3CN[C@@]1(C(=O)NCc1cccc4ccccc14)C[C@@H]3CN2CCc1ccccc1` [IF-223], 10 to 30 µM.
Regarding `CC(C)CNC(=O)[C@@]12C[C@@H]3CN(Cc4cccc5ccccc45)[C@@H]([C@@H]3CN1)[C@H]2CC(N)=O` [IF-226], the IC50 fell in the range of 10 to 30 µM.
Then `NC(=O)C[C@@H]1[C@@H]2[C@@H]3CN[C@@]1(C(=O)NCCO)C[C@@H]3CN2Cc1cccc2ccccc12` [IF-230], with 10 to 30 µM; and `CC(C)CNC(=O)[C@@]12C[C@@H]3CN(Cc4cccc5ccccc45)[C@@H]([C@@H]3CN1)[C@H]2CCCNC(=N)N` [IF-235], with 10 to 30 µM; and `N=C(N)NCCC[C@@H]1[C@@H]2[C@@H]3CN[C@@]1(C(=O)NCc1ccccc1)C[C@@H]3CN2Cc1cccc2ccccc12` [IF-236], with 10 to 30 µM.
Then `N=C(N)NCCC[C@@H]1[C@@H]2[C@@H]3CN[C@@]1(C(=O)NCCO)C[C@@H]3CN2Cc1cccc2ccccc12` [IF-239], with 10 to 30 µM; and `CCCCCCNC(=O)[C@@]12C[C@@H]3CN(Cc4cccc5ccccc45)[C@@H]([C@@H]3CN1)[C@H]2CCCNC(=N)N` [IF-243], with under 5 µM.
Take `CC(C)NC(=O)[C@@]12C[C@@H]3CN(Cc4cccc5ccccc45)[C@@H]([C@@H]3CN1)[C@H]2CCCNC(=N)N` [IF-244]: the IC50 is under 5 µM.
Consider `N=C(N)NCCC[C@@H]1[C@@H]2[C@@H]3CN[C@@]1(C(=O)NCc1ccc(F)cc1)C[C@@H]3CN2Cc1cccc2ccccc12` [IF-245], for which the IC50 was under 5 µM.
For `NC(=O)C[C@@H]1[C@@H]2[C@@H]3CN[C@@]1(C(=O)NCc1ccccc1)C[C@@H]3CN2CC1CCCCC1` [IF-246] the value was 10 to 30 µM; for `NC(=O)C[C@@H]1[C@@H]2[C@@H]3CN[C@@]1(C(=O)NCc1ccc(O)cc1)C[C@@H]3CN2CC1CCCCC1` [IF-247], 10 to 30 µM.
Then `NC(=O)C[C@@H]1[C@@H]2[C@@H]3CN[C@@]1(C(=O)NCCc1ccccc1)C[C@@H]3CN2CC1CCCCC1` [IF-251], with 10 to 30 µM; and `CCCCCCNC(=O)[C@@]12C[C@@H]3CN(CC4CCCCC4)[C@@H]([C@@H]3CN1)[C@H]2CCCNC(=N)N` [IF-260], with 10 to 30 µM.
For `CC(C)CNC(=O)[C@@]12C[C@@H]3CN(Cc4ccc(F)cc4)[C@@H]([C@@H]3CN1)[C@H]2CC(N)=O` [IF-262] the value was under 5 µM; for `NC(=O)C[C@@H]1[C@@H]2[C@@H]3CN[C@@]1(C(=O)NCCc1ccccc1)C[C@@H]3CN2Cc1ccc(F)cc1` [IF-269], 10 to 30 µM.
For `CC(C)NC(=O)[C@@]12C[C@@H]3CN(Cc4ccc(F)cc4)[C@@H]([C@@H]3CN1)[C@H]2CCCNC(=N)N` [IF-274], the IC50 was 10 to 30 µM.
Take `N=C(N)NCCC[C@@H]1[C@@H]2[C@@H]3CN[C@@]1(C(=O)NCc1cccc4ccccc14)C[C@@H]3CN2Cc1ccccc1` [IF-284]: the IC50 was in the range of 10 to 30 µM.
Then `CCCCCCNC(=O)[C@@]12C[C@@H]3CN(Cc4ccccc4)[C@@H]([C@@H]3CN1)[C@H]2CCCNC(=N)N` [IF-285], with 10 to 30 µM; and `N=C(N)NCCC[C@@H]1[C@@H]2[C@@H]3CN[C@@]1(C(=O)NCc1cccc4ccccc14)C[C@@H]3CN2Cc1ccc(F)cc1` [IF-297], with 10 to 30 µM.
Then `CCCCCCNC(=O)[C@@]12C[C@@H]3CN(Cc4ccc(F)cc4)[C@@H]([C@@H]3CN1)[C@H]2CCCNC(=N)N` [IF-298], with 10 to 30 µM; and `CC(C)CC[C@@H]1[C@@H]2[C@@H]3CN[C@@]1(C(=O)NCCC(N)=O)C[C@@H]3CN2CC(C)C` [IF-300], with 10 to 30 µM; and `CC(C)CCNC(=O)[C@@]12C[C@@H]3CN(CCCNC(=N)N)[C@@H]([C@@H]3CN1)[C@H]2Cc1cccc2ccccc12` [IF-356], with 10 to 30 µM.
Then `CC(C)CC[C@@H]1[C@@H]2[C@@H]3CN[C@@]1(C(=O)NCCC(N)=O)C[C@@H]3CN2Cc1cccc2ccccc12` [IF-384], with 10 to 30 µM.
`N=C(N)NCCCNC(=O)[C@@]12C[C@@H]3CN(Cc4cccc5ccccc45)[C@@H]([C@@H]3CN1)[C@H]2Cc1ccccc1` [IF-386]: the IC50 fell in the range of 10 to 30 µM.
As for `N=C(N)NCCCNC(=O)[C@@]12C[C@@H]3CN(Cc4cccc5ccccc45)[C@@H]([C@@H]3CN1)[C@H]2CCc1ccccc1` [IF-389], the IC50 was under 5 µM.
Then `N=C(N)NCCCNC(=O)[C@@]12C[C@@H]3CN(Cc4cccc5ccccc45)[C@@H]([C@@H]3CN1)[C@H]2Cc1cccc2ccccc12` [IF-390], with 10 to 30 µM.
On to `CC(C)CC[C@@H]1[C@@H]2[C@@H]3CN[C@@]1(C(=O)NCC(C)C)C[C@@H]3CN2Cc1ccccc1` [IF-411], for which the IC50 was under 5 µM.
For `CC(C)CC[C@@H]1[C@@H]2[C@@H]3CN[C@@]1(C(=O)NCC(C)C)C[C@@H]3CN2CC(C)C` [IF-412], the IC50 was under 5 µM.
Then `CC(C)CCN1C[C@H]2C[C@]3(C(=O)NCCC(=O)O)NC[C@H]2[C@H]1[C@H]3Cc1cccc2ccccc12` [IF-413], with 10 to 30 µM; and `O=C(O)CCNC(=O)[C@@]12C[C@@H]3CN(CC4CCCCC4)[C@@H]([C@@H]3CN1)[C@H]2Cc1cccc2ccccc12` [IF-416], with 10 to 30 µM.
For `O=C(O)CCNC(=O)[C@@]12C[C@@H]3CN(Cc4ccc(F)cc4)[C@@H]([C@@H]3CN1)[C@H]2Cc1cccc2ccccc12` [IF-417] the value was 10 to 30 µM; for `O=C(O)CC[C@@H]1[C@@H]2[C@@H]3CN[C@@]1(C(=O)NCc1cccc4ccccc14)C[C@@H]3CN2CC1CCCCC1` [IF-419], 10 to 30 µM.
Then `CC(C)CC[C@@H]1[C@@H]2[C@@H]3CN[C@@]1(C(=O)NCc1cccc4ccccc14)C[C@@H]3CN2CCC(=O)O` [IF-422], with 10 to 30 µM; and `CC(C)CN1C[C@H]2C[C@]3(C(=O)NCCC(=O)O)NC[C@H]2[C@H]1[C@H]3Cc1cccc2ccccc12` [IF-428], with 10 to 30 µM; and `NC(=O)CCNC(=O)[C@@]12C[C@@H]3CN(Cc4cccc5ccccc45)[C@@H]([C@@H]3CN1)[C@H]2Cc1ccc(O)cc1` [IF-435], with under 5 µM.
In the case of `O=C(NCCc1ccccc1)[C@@]12C[C@@H]3CN(CC4CCCCC4)[C@@H]([C@@H]3CN1)[C@H]2Cc1ccc(O)cc1` [IF-439], the IC50 was under 5 µM.
Then `O=C(O)CCNC(=O)[C@@]12C[C@@H]3CN(CCO)[C@@H]([C@@H]3CN1)[C@H]2Cc1cccc2ccccc12` [IF-444], with 10 to 30 µM; and `CC(C)CCN1C[C@H]2C[C@]3(C(=O)NCc4ccc(O)cc4)NC[C@H]2[C@H]1[C@H]3CCC(=O)O` [IF-445], with 10 to 30 µM; and `O=C(O)CC[C@@H]1[C@@H]2[C@@H]3CN[C@@]1(C(=O)NCc1ccc(O)cc1)C[C@@H]3CN2CC1CCCCC1` [IF-447], with 10 to 30 µM.
Then `O=C(O)CCN1C[C@H]2C[C@]3(C(=O)NCCO)NC[C@H]2[C@H]1[C@H]3Cc1cccc2ccccc12` [IF-452], with 10 to 30 µM.
Then `CC(C)CNC(=O)[C@@]12C[C@@H]3CN(CCC(=O)O)[C@@H]([C@@H]3CN1)[C@H]2CCc1ccccc1` [IF-454], with 10 to 30 µM; and `CC(C)CNC(=O)[C@@]12C[C@@H]3CN(CCC(=O)O)[C@@H]([C@@H]3CN1)[C@H]2Cc1ccc(O)cc1` [IF-455], with 10 to 30 µM.
`CC(C)CC[C@@H]1[C@@H]2[C@@H]3CN[C@@]1(C(=O)NCc1ccc(O)cc1)C[C@@H]3CN2CCC(=O)O` [IF-458]: the IC50 was in the range of 10 to 30 µM.
For `CC(C)CCN1C[C@H]2C[C@]3(C(=O)NCc4ccc(O)cc4)NC[C@H]2[C@H]1[C@H]3CCc1ccccc1` [IF-464] the value was 10 to 30 µM; for `CC(C)CCN1C[C@H]2C[C@]3(C(=O)NCc4ccc(O)cc4)NC[C@H]2[C@H]1[C@H]3Cc1cccc2ccccc12` [IF-465], 10 to 30 µM; for `CC(C)CCN1C[C@H]2C[C@]3(C(=O)NCc4ccc(O)cc4)NC[C@H]2[C@H]1[C@H]3Cc1ccccc1` [IF-466], 10 to 30 µM.
`CC(C)CC[C@@H]1[C@@H]2[C@@H]3CN[C@@]1(C(=O)NCc1ccc(O)cc1)C[C@@H]3CN2CCc1ccccc1` [IF-468]: the IC50 lay in the range of 10 to 30 µM.
Then `O=C(NCc1ccc(O)cc1)[C@@]12C[C@@H]3CN(CCc4ccccc4)[C@@H]([C@@H]3CN1)[C@H]2Cc1ccccc1` [IF-469], with 10 to 30 µM.
With `CC(C)C[C@@H]1[C@@H]2[C@@H]3CN[C@@]1(C(=O)NCc1ccc(O)cc1)C[C@@H]3CN2CCc1ccccc1` [IF-470], the IC50 is 10 to 30 µM.
For `O=C(NCc1ccc(O)cc1)[C@@]12C[C@@H]3CN(Cc4cccc5ccccc45)[C@@H]([C@@H]3CN1)[C@H]2Cc1ccccc1` [IF-472] the value was under 5 µM.
For `CC(C)C[C@@H]1[C@@H]2[C@@H]3CN[C@@]1(C(=O)NCc1ccc(O)cc1)C[C@@H]3CN2Cc1cccc2ccccc12` [IF-473] the value was under 5 µM; for `CC(C)CC[C@@H]1[C@@H]2[C@@H]3CN[C@@]1(C(=O)NCc1ccc(O)cc1)C[C@@H]3CN2CC1CCCCC1` [IF-474], under 5 µM; for `O=C(NCc1ccc(O)cc1)[C@@]12C[C@@H]3CN(CC4CCCCC4)[C@@H]([C@@H]3CN1)[C@H]2CCc1ccccc1` [IF-475], 10 to 30 µM.
In the case of `O=C(NCc1ccc(O)cc1)[C@@]12C[C@@H]3CN(CC4CCCCC4)[C@@H]([C@@H]3CN1)[C@H]2Cc1ccccc1` [IF-477], the IC50 was under 5 µM.
Then `CC(C)C[C@@H]1[C@@H]2[C@@H]3CN[C@@]1(C(=O)NCc1ccc(O)cc1)C[C@@H]3CN2CC1CCCCC1` [IF-478], with under 5 µM; and `CC(C)CC[C@@H]1[C@@H]2[C@@H]3CN[C@@]1(C(=O)NCc1ccc(O)cc1)C[C@@H]3CN2Cc1ccc(F)cc1` [IF-479], with under 5 µM.
